Results from patent publication US20140072557A1, “MEDICINAL AGENT FOR SUPPRESSING MALIGNANT TUMOR METASTASIS” (priority 2011, published 2014).
Bridges are numbered along the chain shown (N, C = ends). Where no end group is shown, it is not given here.

How the values were obtained:
A549 cells [1] = experiment: Intracellular cGMP level in A549 cells on natriuretic peptide stimulus; assay type: cell-based; settings: 1×10^−11 M to 1×10^−6 M, 10 minutes
Method: The A549 cells were cultured in a 24-well dish at 4×10^4 cells/well, and the culture medium was replaced with DMEM culture medium free from FCS the next day. To the culture medium, solutions of hANP, hBNP, and hCNP (final concentration: ten-fold serial dilution from 1×10^−11 M to 1×10^−6 M, the same amount of physiological saline was used as a control) were separately added. After 10 minutes passed, 400 μL of cooled 70% ethanol (containing 0.1 N hydrochloric acid) was added, and ultrasonication was performed for a short time. The treated solution was lyophilized, and the cGMP level was measured using Cyclic GMP Assay kit (made by Yamasa Corp.).

mouse melanoma B16-F10 = experiment: Mouse tail vein injection metastasis test, mouse melanoma B16-F10; assay type: in vivo, mice; settings: 2.5 μg/kg/min by subcutaneous osmotic pump, 2 weeks
Method: 6-week-old male […] mice were used (purchased from Japan SLC, Inc.). Mouse melanoma B16-F10 was purchased from ATCC, and cultured in DMEM (Life Technologies Corp.) containing 10% FCS under 5% CO2 at 37° C. The cells in a subconfluent state were treated with EDTA-trypsin, centrifuged, and then suspended in serum free DMEM so as to be 5×10^6 cells/mL. The melanoma cell suspension (100 μL/mouse, 5×10^5 cells) was injected to the tail vein of the mice. The osmotic pumps used were MODEL2002 (for 14-day administration) made by ALZET (Cupertino, Calif,.).
Mice into which an osmotic pump containing 0.9% physiological saline was subcutaneously implanted in the back were assigned to the control group. Similarly, an osmotic pump containing hANP prepared for administration at 0.5 μg/kg/min was subcutaneously implanted into each mouse in the ANP group, an osmotic pump containing mouse BNP prepared for administration at 0.5 μg/kg/min was subcutaneously implanted into each mouse in the BNP group, and an osmotic pump containing hCNP-22 prepared for administration at 2.5 μg/kg/min was subcutaneously implanted into each mouse in the CNP group. To the mice in the sildenafil group, sildenafil citrate at a dosage of 20 mg/kg was intraperitoneally administered once daily. […]

A549 cells [2] = experiment: EMT induced by TGF-β1 in A549 cells (morphology, quantitative RT-PCR); assay type: cell-based; settings: final concentration 1 μM, A549 cells
Method: Using a 6-well dish, the A549 cells were cultured at 1×10^5 cells/well, and the culture medium was replaced with DMEM culture medium free from FBS the next day. After 24 hours of culture, the cells were used in the following experiment.
An ANP group (ANP solution was added (final concentration: 1 μM)) and a control group (the same amount of physiological saline was added) were prepared, and after 2 hours from the addition, TGF-β1 was added so that the final concentration would be 0.125, 0.25, 0.5, 1.0, and 2.0 ng/mL. After 24 hours had passed, the morphological change in the cells was observed under a microscope and photographed (FIG. 3).
Then, total RNA was collected using TRIZOL total RNA isolation reagent (made by Invitrogen), cDNA was synthesized using reverse transcriptase, and the mRNA levels of E-cadherin, N-cadherin, VEGF-A, PDGF-B, TNF-α, and IL-6 were measured by quantitative RT-PCR. It is known that in EMT, the expression of E-cadherin decreases while the expression of N-cadherin increases. The expression ratio of N-cadherin/E-cadherin is considered to be useful as an indicator of the degree of EMT.

[3] = biological target: T1, natriuretic peptide receptor GC-B (Homo sapiens, UniProt P20594); settings: Furuya et al. 1992; cited from earlier work
T1 sequence (P20594 23-1047): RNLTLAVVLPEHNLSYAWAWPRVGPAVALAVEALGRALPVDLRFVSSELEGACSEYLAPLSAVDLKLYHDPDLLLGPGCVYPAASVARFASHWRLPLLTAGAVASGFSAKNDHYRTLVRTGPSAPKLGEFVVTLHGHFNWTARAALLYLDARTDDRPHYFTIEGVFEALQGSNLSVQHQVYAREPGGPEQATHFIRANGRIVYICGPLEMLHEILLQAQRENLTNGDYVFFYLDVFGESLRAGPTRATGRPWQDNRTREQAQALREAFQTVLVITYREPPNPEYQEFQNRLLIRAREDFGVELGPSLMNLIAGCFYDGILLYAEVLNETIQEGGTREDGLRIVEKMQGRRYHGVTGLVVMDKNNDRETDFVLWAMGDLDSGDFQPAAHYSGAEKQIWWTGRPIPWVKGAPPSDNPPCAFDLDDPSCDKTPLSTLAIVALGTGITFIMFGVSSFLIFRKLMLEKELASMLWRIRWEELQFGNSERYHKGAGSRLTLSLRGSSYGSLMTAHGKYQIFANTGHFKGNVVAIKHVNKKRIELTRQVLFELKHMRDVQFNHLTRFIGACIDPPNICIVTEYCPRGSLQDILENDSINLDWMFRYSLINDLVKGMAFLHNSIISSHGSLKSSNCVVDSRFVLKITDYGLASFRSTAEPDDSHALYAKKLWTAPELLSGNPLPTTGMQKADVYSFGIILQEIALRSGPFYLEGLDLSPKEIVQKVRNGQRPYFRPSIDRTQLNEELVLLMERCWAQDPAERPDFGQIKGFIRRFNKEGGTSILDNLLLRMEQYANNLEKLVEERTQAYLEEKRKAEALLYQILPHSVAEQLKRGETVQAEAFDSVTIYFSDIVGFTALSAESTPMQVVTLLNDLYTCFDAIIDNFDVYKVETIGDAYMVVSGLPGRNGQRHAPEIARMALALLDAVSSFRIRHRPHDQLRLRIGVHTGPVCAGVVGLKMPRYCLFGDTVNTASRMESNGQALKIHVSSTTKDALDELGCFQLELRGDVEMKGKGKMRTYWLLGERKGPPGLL

## hCNP: 22-amino acid CNP-22 of human origin, GLSKGCFGLK LDRIGSMSGL GC (SEQ ID NO: 7), GC-B agonist (GLSKGCFGLKLDRIGSMSGLGC; listed as Homo sapiens)
A549 cells [1]
  intracellular cGMP level: did not show such increase
Mouse melanoma B16-F10
  lung metastasis of melanoma (number of nodules): significantly suppressed

## LKL-ANP: a mutant in which the amino acids at positions 10 to 12 of hANP are replaced with LKL (SLRRSSCFGLKLDRIGAQSGLGCNSFRY; ends and bridges not checked; cysteine pairing not given here; UniProt P01160 124-151, looked up, variant G10L R11K M12L)
A549 cells [2]
  ratio of suppression of EMT induced by TGF-β in terms of E-cad/Ncad: 52.9%

## nesiritide [hBNP]
A549 cells [1]
  intracellular cGMP level: increased the intracellular cGMP level of the A549 cells in a concentration-dependent manner

## hCNP6-22: peptide consisting of amino acids from position 6 to position 22 of SEQ ID NO: 7 (ring structure only) (CFGLKLDRIGSMSGLGC; disulfide 1-17 (inferred); listed as Homo sapiens)
[3]
  GC-B agonist activity compared with hCNP-22: comparable to that of hCNP-22
